Holding throughout (test): growth of human tumour cells (NCI), 48 h
Assay [1] has as its system BT-549.
Assay [2] concerns CAKI-1.
The subject of assay [3] is DU-145.
Assay [4] relates to EKVX.
Assay [5] concerns HCC 2998.
In assay [6] the test system is Hs-578T.
Assay [7] concerns NCI-H522.
Assay [8] concerns NCI/ADR-RES.
The test system of assay [9] is OVCAR-4.
Assay [10] relates to OVCAR-8.
Assay [11] relates to RPMI-8226.
The test system of assay [12] is SF-268.
The subject of assay [13] is SN12C.
In assay [14] the test system is T47D.
The test system of assay [15] is TK-10.
The subject of assay [16] is UO-31.
Assay [17] has as its system HL-60.
Assay [18] relates to HOP-92.
Assay [19] deals with SW-620.

The structures appear in SMILES notation.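 The compound was tested at five concentrations on cells cultured in 96-well plates, with a 48-hour exposure period. GI50 is the concentration that inhibits growth by half.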 Calls of active or inactive are those of the source. Rule as the data show it: active = GI50 up to about 1.1 µM and inactive = higher.

Regarding `CN(C)CCCN1c2ccccc2CCc2cc([N+](=O)[O-])ccc21`, the GI50 in assay [1] was 22.4 µM (inactive); in assay [2], 26.8 µM (inactive); in assay [3] it was 24.4 µM (inactive); in [4], 33.9 µM (inactive); in assay [5] it was 17.7 µM (inactive); in [6] it was 31.8 µM (inactive). Moreover, the GI50 in assay [7] was 24.5 µM (inactive); in assay [8] it was 26.9 µM (inactive); in assay [9], 24.4 µM (inactive); in [10], 24.6 µM (inactive); in assay [11], 21.5 µM (inactive); in assay [12], 20 µM (inactive). Also, the GI50 is 22.9 µM (inactive) in [13], 18.7 µM (inactive) in assay [14], 28.5 µM (inactive) in assay [15] and 22.2 µM (inactive) in assay [16].

Regarding `C[C@H](C1CC2(C)OC2(C)C(=O)O1)[C@H]1CC[C@H]2[C@@H]3[C@@H]4O[C@@H]4[C@@]4(O)CC=CC(=O)[C@]4(C)[C@H]3CC[C@]12C` (some centres not stated), the GI50 was > 50 µM (inactive) in assay [1]; > 50 µM (inactive) in assay [2]; 16.9 µM (inactive) in assay [3]; > 50 µM (inactive) in [4]; > 50 µM (inactive) in assay [5]; > 50 µM (inactive) in [17]. In addition, the GI50 is > 50 µM (inactive) in assay [18]; 36.6 µM (inactive) in [7]; > 50 µM (inactive) in [8]; > 50 µM (inactive) in assay [9]; > 50 µM (inactive) in assay [10]; > 50 µM (inactive) in [11]. Also, the GI50 in assay [12] is > 50 µM (inactive); in [13] it was > 50 µM (inactive); in assay [19] it was > 50 µM (inactive); in assay [14] it was 24.9 µM (inactive); in assay [15], > 50 µM (inactive); in assay [16], 12.3 µM (inactive).

For the compound `O=C(Cc1ccc([N+](=O)[O-])cc1)OCC#CCOC(=O)Cc1ccc([N+](=O)[O-])cc1`, the GI50 in assay [1], in assay [4], in assay [17], in [18], in [6] and in [7] was > 10 µM (inactive) throughout. The GI50 in [8], in [9], in [10], in assay [12], in [13] and in assay [19] was > 10 µM (inactive) each time. In addition, the GI50 in assay [14], in assay [15] and in [16] was > 10 µM (inactive) in each case.

For `Cc1ccc(S(=O)(=O)Nn2c(O)c(C#N)c(-c3ccc(N(C)C)cc3)c(C#N)c2=O)cc1`, the GI50 in assay [1] was > 50 µM (inactive); in [2], > 50 µM (inactive); in assay [4] it was > 50 µM (inactive); in [5], > 50 µM (inactive); in assay [17], 28.9 µM (inactive); in assay [18], > 50 µM (inactive). In addition, the GI50 in assay [6] was > 50 µM (inactive); in assay [7], > 50 µM (inactive); in assay [8], > 50 µM (inactive); in assay [9], > 50 µM (inactive); in [10], > 50 µM (inactive); in assay [11] it was 9.75 µM (inactive). Also, the GI50 in assay [12], in assay [13], in assay [19] and in [15] was > 50 µM (inactive) in each case.

For `NC1=NC2(COC(c3ccccc3)(c3ccccc3)c3ccccc3)OC(COC(c3ccccc3)(c3ccccc3)c3ccccc3)C(O)C2O1` (configuration not stated), the GI50 was 41.3 µM (inactive) in assay [1]; > 100 µM (inactive) in [2]; > 100 µM (inactive) in assay [3]; 16.4 µM (inactive) in assay [4]; 8.59 µM (inactive) in [17]; 15.2 µM (inactive) in assay [18]. The GI50 in assay [6] is 0.258 µM (active); in assay [7], 52.5 µM (inactive); in assay [8] it was 21.1 µM (inactive); in assay [10] it was 5.98 µM (inactive); in [11], 16.6 µM (inactive); in [13], > 100 µM (inactive). Also, the GI50 in assay [19] is > 100 µM (inactive); in assay [14] it was 53.1 µM (inactive); in assay [15], 18.9 µM (inactive); in assay [16], 13.4 µM (inactive).

Regarding `C[N+](C)(C)CC(=O)N/N=C/c1ccncc1`, the GI50 in assay [1] was > 100 µM (inactive); in assay [2], > 100 µM (inactive); in assay [3] it was > 100 µM (inactive); in [4] it was > 100 µM (inactive); in assay [17], 65.6 µM (inactive); in [18], > 100 µM (inactive). The GI50 in assay [6], in [7], in assay [8], in assay [9], in assay [10] and in assay [11] was > 100 µM (inactive) throughout. The GI50 in assay [12], in assay [13], in [19], in assay [14], in [15] and in [16] was > 100 µM (inactive) each time.

`O=C(O)c1cccc(S(=O)(=O)NN2C(=O)CSC2c2ccccc2Cl)c1` (configuration not stated): the GI50 in [1], in assay [2], in assay [3], in assay [4], in [5] and in assay [17] was > 100 µM (inactive) throughout. In addition, the GI50 in assay [18] is > 100 µM (inactive); in assay [6] it was > 100 µM (inactive); in assay [7], > 100 µM (inactive); in [10], > 100 µM (inactive); in assay [11], 81.3 µM (inactive); in assay [12], > 100 µM (inactive). For the same compound, the GI50 in assay [13], in [19], in assay [14], in [15] and in assay [16] was > 100 µM (inactive) each time.

`CCN(CC)C(=S)N/N=C/c1cc(OC)ccc1O`: the GI50 in assay [1] was 7.05 µM (inactive); in [3] it was 5.86 µM (inactive); in assay [4] it was 10.4 µM (inactive); in assay [5], 3.86 µM (inactive); in assay [17], 2.46 µM (inactive); in assay [6] it was 69.8 µM (inactive). Further, the GI50 in assay [7] was 3.85 µM (inactive); in [8], 2.58 µM (inactive); in [9], 3.56 µM (inactive); in assay [10], 4.51 µM (inactive); in assay [12] it was 1.87 µM (inactive); in assay [13], 5.79 µM (inactive). Moreover, the GI50 was 8.28 µM (inactive) in assay [19], 7.28 µM (inactive) in [14], 4.3 µM (inactive) in assay [15] and 0.561 µM (active) in assay [16].

In the case of `Cc1ccc2oc3c(c(Br)c(Br)n3C)c(=O)c2c1`, the GI50 in assay [1] was > 100 µM (inactive); in assay [2], 28.4 µM (inactive); in assay [3], 78.9 µM (inactive); in [4] it was 10.4 µM (inactive); in assay [17], > 100 µM (inactive); in assay [18] it was 18.1 µM (inactive). Also, the GI50 in [6] was 18.5 µM (inactive); in assay [7] it was 46.2 µM (inactive); in assay [8], 20.4 µM (inactive); in assay [9], 51.5 µM (inactive); in [10] it was 17.4 µM (inactive); in [11], > 100 µM (inactive). Further, the GI50 in assay [12] was 29.4 µM (inactive); in assay [13], 18.3 µM (inactive); in assay [19] it was > 100 µM (inactive); in assay [14] it was 41.5 µM (inactive); in assay [15], 19 µM (inactive); in assay [16] it was 13.9 µM (inactive).

On to `CCCN1CCC(=O)N(CCC(F)(F)C(F)(F)C(F)(F)C(F)(F)C(F)(F)C(F)(F)F)C1=S`, for which the GI50 in assay [1] was > 100 µM (inactive); in [2], > 100 µM (inactive); in assay [3], > 100 µM (inactive); in assay [4], > 100 µM (inactive); in [5] it was 94.6 µM (inactive); in assay [17], > 100 µM (inactive). In addition, the GI50 in assay [18], in assay [6], in assay [7], in [9], in [10] and in [12] was > 100 µM (inactive) in each case. Further, the GI50 in assay [13], in [19], in assay [14], in assay [15] and in [16] was > 100 µM (inactive) in each case.

Turning to `CC(=O)NC1C(OCC(=O)NC(C)C(=O)NC(CCC(=O)NCCCCCNc2ccc([N+](=O)[O-])c3[nH]c4ccccc4c(=O)c23)C(N)=O)C(O)C(CO)OC1(C)OCc1ccccc1` (configuration not stated), the GI50 is > 50 µM (inactive) in [1]; > 50 µM (inactive) in assay [2]; > 50 µM (inactive) in assay [3]; > 50 µM (inactive) in assay [4]; > 50 µM (inactive) in [5]; 19.5 µM (inactive) in assay [6]. The GI50 in [7] was > 50 µM (inactive); in assay [8], > 50 µM (inactive); in [9], > 50 µM (inactive); in assay [10], > 50 µM (inactive); in assay [11], 0.005 µM (active); in assay [12], 14.5 µM (inactive). Further, the GI50 in assay [13] is 19.6 µM (inactive); in [19], > 50 µM (inactive); in assay [14] it was > 50 µM (inactive); in assay [15], 24 µM (inactive); in assay [16], > 50 µM (inactive).

In the case of `Cc1ccc(/N=C2/S/C(=C3/CCC=C3N3CCOCC3)N(c3ccc(Cl)cc3)/C2=N/c2ccc(C)cc2)cc1`, the GI50 in [1], in assay [4], in [5], in [17], in assay [18] and in assay [6] was > 100 µM (inactive) throughout. In addition, the GI50 in assay [10], in assay [11], in assay [13], in assay [19], in assay [14] and in assay [15] was > 100 µM (inactive) throughout. Besides, the GI50 in assay [16] was > 100 µM (inactive).

Values taken from ChEMBL document CHEMBL1201862, “PubChem BioAssay data set” (2004).
